Experimental findings from US20080305519A1, “Biochemical method for specific protein labeling” (priority 2006, published 2008) are described below.

For test [1], the system named is semi-purified tubulin/parkin complex. The test is described as follows: Biotin Tag Conjugation of Tubulin/Parkin Complex. Conditions: for labeling of tubulin in tubulin/parkin complex (FIG. 8): FIG. 8 lanes 3 and 6; for biotin labeling efficiency of parkin-mediated tubulin modification versus recognition sequence: FIG. 2b, tags 1-6 compared. In kind it is biochemical, rat. Here is the method: A total of 4 μg semi-purified tubulin/parkin complex and varying concentrations of the biotin tag was incubated at 37° C. for 15 min in 10 μL buffers of 50 mM Tris, 50 mM NaCl, 10 mM MgCl2, 10 μM ATP, pH 7.6. For DTT reduction, 1 μL of 6M DTT was added and the solution was incubated at r.t. for additional 30 min. Reactions were terminated by the additions of 2 μL 6×SDS-PAGE sample buffer containing 100 mM DTT and the mixtures were boiled at 95° C. for 5 min. The biotin-labeled substrates were resolved from the free biotin tags with 8-16% Tris-Glycine SDS-PAGE gel, transferred onto the PVDF membrane using a semi-dry protein transfer apparatus, and detected using the VECTASTAIN ABC-AmP detection system following the manufacturer's protocol. The intensities of protein bands are quantified with the ImageJ program (http://rsb.info.nih.gov/ij/) following the program manual.

The target of test [2] is T1, ubiquitin activating enzyme (E1), rabbit (Oryctolagus cuniculus, UniProt Q29504).
T1 construct: purchased Boston Biochem E-302
T1 sequence (Q29504 1-1058): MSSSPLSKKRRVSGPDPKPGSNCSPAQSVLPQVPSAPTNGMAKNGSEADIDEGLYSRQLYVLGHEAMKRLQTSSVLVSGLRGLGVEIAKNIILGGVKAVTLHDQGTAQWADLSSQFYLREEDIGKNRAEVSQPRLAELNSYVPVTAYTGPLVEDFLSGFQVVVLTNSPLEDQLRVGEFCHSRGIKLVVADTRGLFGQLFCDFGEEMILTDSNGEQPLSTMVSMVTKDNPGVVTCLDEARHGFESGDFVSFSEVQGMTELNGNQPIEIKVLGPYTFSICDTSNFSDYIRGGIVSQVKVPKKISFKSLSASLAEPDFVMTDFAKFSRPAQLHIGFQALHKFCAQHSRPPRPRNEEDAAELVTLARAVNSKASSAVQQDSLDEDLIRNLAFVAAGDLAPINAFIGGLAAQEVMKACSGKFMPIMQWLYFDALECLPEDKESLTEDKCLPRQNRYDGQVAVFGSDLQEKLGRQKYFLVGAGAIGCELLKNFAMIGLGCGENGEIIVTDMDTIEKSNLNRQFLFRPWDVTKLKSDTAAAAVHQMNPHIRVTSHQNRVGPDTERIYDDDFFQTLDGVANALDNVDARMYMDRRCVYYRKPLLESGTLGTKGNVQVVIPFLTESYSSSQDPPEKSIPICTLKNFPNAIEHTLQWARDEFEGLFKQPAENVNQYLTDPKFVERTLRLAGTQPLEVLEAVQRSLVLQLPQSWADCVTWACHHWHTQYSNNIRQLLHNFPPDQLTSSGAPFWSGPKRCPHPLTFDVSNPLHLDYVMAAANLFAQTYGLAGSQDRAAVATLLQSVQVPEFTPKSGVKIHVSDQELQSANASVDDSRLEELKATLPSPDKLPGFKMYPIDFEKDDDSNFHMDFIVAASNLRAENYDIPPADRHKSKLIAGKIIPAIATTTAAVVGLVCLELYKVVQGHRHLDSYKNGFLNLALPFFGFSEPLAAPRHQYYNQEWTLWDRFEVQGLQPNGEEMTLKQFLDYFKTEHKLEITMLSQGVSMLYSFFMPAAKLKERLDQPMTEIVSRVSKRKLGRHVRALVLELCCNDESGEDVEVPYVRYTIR
Put plainly: E1-Biotin Tag Conjugation Assay. It counts as biochemical. Here is the method: The E1 enzyme was diluted with 50 mM HEPES buffer, pH 7.6 to derive the 0.45 μM stocks. A total of 90 nM rabbit E1 and varying concentrations of tag 1 was incubated at 37° C. for 5 min in 10 μL buffers of 50 mM Tris, 50 mM NaCl, 10 mM MgCl2, 10 μM ATP, pH 7.6. The reactions were terminated by the additions of 2 μL 6× bromophenol-absent SDS sample buffer and the mixtures were boiled at 85° C. for 2 min. The biotin-labeled E1 thioesters were resolved from the free biotin tags with 8-16% Tris-Glycine SDS-PAGE gel, transferred onto the PVDF membrane using a semi-dry protein transfer apparatus, and detected using the VECTASTAIN ABC-AmP detection system following the manufacturer's protocol. Briefly, the membrane was washed three times for 4 min each in 10 mL 1× casein solution at r.t. with gentle shaking, and then incubated in the 10 mL 1× casein blotting solution containing 20 μL each of reagent A and B from the kit for 10 min. The membrane was washed three times for 4 min each in 10 mL 1× casein solution, followed by equilibration in 10 mL 0.1M Tris buffer, pH 9.5, for 5 min. The excess buffer was removed and the blot surface was incubated in 3 mL DuoLux chemiluminescent substrate for 5 min under subdued light. Briefly rinse the blot in 0.1 M Tris buffer, pH 9.5, and remove the excess buffer by touching the edge of the blot to absorbent paper. The image was obtained by exposing the blot to the Kodak BioMax Light Film.

Test [3] has as its system Fraction II, rabbit reticulocyte. Put plainly: Fraction II - Biotin Tag Conjugation Assay. The conditions noted are these: ubiquitin-free reticulocyte fraction II containing E1, E2, E3 activities. It counts as biochemical. The method, then:
The fraction II from rabbit reticulocyte lysates was cleaned with ImmunoPure immobilized streptavidin beads from Pierce (Rockford, Ill.) to remove non-specific streptavidin-binding proteins following the manufacturer's instruction. An aliquot (11 μg) was then incubated with various amounts of biotin tag in 10 μL reaction buffer (100 mM Tris, 3 mM DTT, 5 mM MgCl2, 2 mM ATP, pH 7.6) at 37° C. for 5 min. The reactions were terminated by adding 2 μL 6×SDS-PAGE sample buffer and the mixtures were boiled at 85° C. for 2 min. The biotin-labeled substrates were resolved from the free biotin tags with 8-16% Tris-Glycine SDS-PAGE gel, transferred onto the PVDF membrane using a semi-dry protein transfer apparatus, and detected using the VECTASTAIN ABC-AmP detection system following the manufacturer's protocol.

The target of test [4] is T2, UbCH7 (E2), human recombinant (Homo sapiens, UniProt P68036).
T2 construct: purchased Boston Biochem E2-640
Put plainly: E2-Biotin Tag Conjugation Assay. It counts as biochemical. The method, then:
The UbCH7 enzyme was diluted with a buffer of 50 mM HEPES, 50 mM NaCl, 10% glycerol, pH 7.6 to derive the 10 μM stocks. […] Reactions were terminated by the additions of 2 μL 6× non-reducing bromophenol-absent SDS-PAGE sample buffer and the mixtures were boiled at 85° C. for 2 min. The biotin-labeled […] were resolved from the free biotin tags with 8-16% Tris-Glycine SDS-PAGE gel, transferred onto the PVDF membrane using a semi-dry protein transfer apparatus, and detected using the VECTASTAIN ABC-AmP detection system following the manufacturer's protocol.

T2 sequence (P68036 whole entry): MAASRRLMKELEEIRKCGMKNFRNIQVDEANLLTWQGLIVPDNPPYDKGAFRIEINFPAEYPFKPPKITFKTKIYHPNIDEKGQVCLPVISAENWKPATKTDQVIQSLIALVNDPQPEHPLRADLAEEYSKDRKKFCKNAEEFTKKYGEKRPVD

For the compound `O=C(O)CCCCCNC(=O)CCCC[C@@H]1SC[C@@H]2NC(=O)N[C@@H]21` [long-chain biotin, biotinylaminohexanonic acid, reference compound], the “labeling of proteins in tubulin/parkin complex” value in test [1] (450 μM) was “no labeling of any protein”. Also, in test [1], the “labeling of tubulin in tubulin/parkin complex (FIG. 8)” value is reported as “could not label the tubulins”.

Regarding “tag 2: biotin linked through aminohexanoic acid linker to sequence LALRGG (SEQ ID NO: 2) (HELM PEPTIDE1{[O=C1N[C@H]2[C@H](CS[C@H]2CCCCC(=O)[*:2])N1].[O=C(CCCCCN[*:1])[*:2]].L.A.L.R.G.G}$$$$V2.0; SMILES CC(C)C[C@H](NC(=O)CCCCCNC(=O)CCCC[C@@H]1SC[C@@H]2NC(=O)N[C@@H]21)C(=O)N[C@@H](C)C(=O)N[C@@H](CC(C)C)C(=O)N[C@@H](CCCNC(=N)N)C(=O)NCC(=O)NCC(=O)O)”, the “biotin labeling efficiency of parkin-mediated tubulin modification versus recognition sequence” value in test [1] was “decreased biotin labeling”. In addition, the “activity in E1 adduct formation” value in test [2] (concentrations as high as 450 μM) was “almost no activity”.

Take “tag 1: biotin linked through aminohexanoic acid linker to recognition sequence LRLRGG (SEQ ID NO: 1) (HELM PEPTIDE1{[O=C1N[C@H]2[C@H](CS[C@H]2CCCCC(=O)[*:2])N1].[O=C(CCCCCN[*:1])[*:2]].L.R.L.R.G.G}$$$$V2.0; SMILES CC(C)C[C@H](NC(=O)CCCCCNC(=O)CCCC[C@@H]1SC[C@@H]2NC(=O)N[C@@H]21)C(=O)N[C@@H](CCCNC(=N)N)C(=O)N[C@@H](CC(C)C)C(=O)N[C@@H](CCCNC(=N)N)C(=O)NCC(=O)NCC(=O)O)”: the “concentration range of concentration-dependent biotin labeling of 55 KDa protein (tubulin)” value in test [1] (10 μM ATP, FIG. 2a) was in the range of 17 to 450 µM. In test [1], the “biotin labeling efficiency of parkin-mediated tubulin modification versus recognition sequence” value is given as “highest labeling efficacy” and the “labeling of tubulin in tubulin/parkin complex (FIG. 8)” value is recorded as “Robust labeling”. Moreover, the “covalent modification of proteins in fraction II extract” value in test [3] was “concentration-dependent covalent modification of a large number of proteins”. Also, in test [4] (incubation with E2 alone, no E1), the “biotin labeling of E2 in the absence of E1” value is on record as “did not give rise to the biotin-labeled E2”. The “extent of tag transfer from E1-1 to E2” value in test [4] (tag concentration reduced to 50 μM, E1 and E2 present) is reported as “undetectable level”. Besides, the “formation of E1-biotin tag adduct (E1-1 thioester)” value in test [2] (incubated with E1 for 5 min, non-reducing ATP-supplemented buffer, streptavidin blot) is “biotin-containing protein bands with the size matching that of E1 were detected”. For the same compound, the “E1 biotin-adduct formation on withdrawal of ATP” value in test [2] (no ATP in reaction buffer, tag 150 μM (FIG. 6)) is “aborted the biotin-adduct formation”.
